Results as given in US10308615B2, “Heterocyclic compounds as inhibitors of Vanin-1 enzyme” (Pfizer Inc., priority 2015, dated 2019).

Assays:
DSS-induced colitis = test: DSS (Dextran Sodium Sulfate)-induced colitis mouse model of IBD; type: in vivo, mice
Description: Induced Colitis Mouse Model Methods
Example 1 along with sulfasalazine was evaluated in DSS (Dextran Sodium Sulfate) —induced colitis mouse model of IBD. Experimental colitis was induced in healthy young female BALB/C mice by providing 4% DSS; molecular weight 36,000-50,000 (wt/vol) in drinking water ad-libitium for seven days followed by water alone for another seven days. At the commencement of the study, mice were between 7-8 weeks of age, weighing 18-20 g. All the mice were obtained from The Jackson Laboratory, Bar Harbor, Me. 04609 USA. The test articles Example 1 and vehicle were administered subcutaneously (sc) once a day beginning day −1 and continued till day 14. The positive control, Sulfasalazine was dosed orally (po) once a day beginning day 5 and continued till day 14 (Table 2). The body weights were recorded prior to dosing and daily thereafter for fourteen days. Clinical assessments of the mice were performed every other day beginning day 5. The clinical assessment includes body weight, stool consistency and the presence of blood in the stools and scored accordingly to the Table-3. At the end of the study mice were sacrificed using CO2 asphyxiation and colon from the colocecal junction to the anus was removed, washed and cleaned of all fecal matter using PBS, measured and weighed. The data are presented as the mean±standard error (SEM). Data were analyzed using two-way ANOVA using Bonferroni post-test. groups were considered significant at p<0.05.

human vanin-1 [1] = target: T1, human vanin-1 (Homo sapiens (Human), UniProt O95497); test: Human Vanin-1 Enzyme Assay 1; type: biochemical; settings: 25 pM human vanin-1, 50 uM pantetheine 7-amino-4-trifluoromethylcoumarin, 30 min preincubation, 60 min
T1 sequence (O95497 22-491): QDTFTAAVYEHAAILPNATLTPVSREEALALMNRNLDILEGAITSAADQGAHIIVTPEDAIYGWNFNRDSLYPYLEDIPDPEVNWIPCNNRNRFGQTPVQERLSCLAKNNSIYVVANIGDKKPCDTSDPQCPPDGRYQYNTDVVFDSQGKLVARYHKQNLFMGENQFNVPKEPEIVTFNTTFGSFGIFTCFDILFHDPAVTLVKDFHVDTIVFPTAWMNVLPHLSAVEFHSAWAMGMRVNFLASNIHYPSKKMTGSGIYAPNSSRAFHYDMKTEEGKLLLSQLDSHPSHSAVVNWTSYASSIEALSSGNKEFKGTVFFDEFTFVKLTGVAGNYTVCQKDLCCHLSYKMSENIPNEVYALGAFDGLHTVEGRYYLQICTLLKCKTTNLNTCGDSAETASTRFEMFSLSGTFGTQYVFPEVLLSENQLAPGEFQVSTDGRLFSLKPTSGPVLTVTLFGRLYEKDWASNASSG
Outline: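 Purified His6/FLAG-tagged extracellular domain of human vanin-1, secreted from CHO cells, at 25 pM final in 50 mM Tris-HCl pH 8.0, 50 mM KCl, 0.005% Brij-35, 1.6 mM cysteamine, 0.5% DMSO. Inhibitor preincubated 30 min at room temperature; 50 uM pantetheine-AFC substrate, 60 min, fluorescence at 405/510 nm; 11-point four-fold dilution series.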

human vanin-1 [2] = target: T1, human vanin-1; test: Human Vanin-1 Enzyme Assay 2; type: biochemical; settings: 1 nM human vanin-1, 10 uM substrate, 45 min
Outline: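 Purified CHO-expressed His/FLAG-tagged human vanin-1 extracellular domain (1 nM) cleaved pantetheine-AMC-CF3 substrate (10 uM) in pH 8.0 Tris buffer with 1.5 mM cysteamine and 1% DMSO. Fluorescence (ex 405/em 505 nm) was read after 45 min, over an 11-point half-log inhibitor series.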

human vanin-1 [3] = target: T1, human vanin-1; test: Human Vanin-1 Enzyme Assay 3; type: biochemical; settings: 2 nM human vanin-1, 10 uM substrate, 15 min
Outline: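 His/FLAG-tagged extracellular domain of human vanin-1 from CHO cells, used at 2 nM final, with 10 uM pantetheine-AFC substrate. Buffer: 50 mM Tris-HCl pH 8.0, 50 mM KCl, 0.005% Brij-35, 1.5 mM cysteamine, 1% DMSO. 15 min at room temperature; fluorescence read at 405/505 nm across an 11-point 2-fold dilution series.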

[4] = 50 mg/kg sc QD days -1-14, 4% DSS, female BALB/C mice

Structure (SMILES)	IC50 (human vanin-1 [1])	IC50 (human vanin-1 [2])	IC50 (human vanin-1 [3])	Disease Activity Index (DAI) (DSS-induced colitis; [4])	colon length (DSS-induced colitis; [4])	loss of body weight (DSS-induced colitis; [4])	improvement in the colitis (FIG. 1-3) (DSS-induced colitis; 100 mg/kg po QD days 5-14, positive control)
N#Cc1cccc(C(=O)c2cnc(NC3(c4cncnc4)CC3)nc2)c1 [Example 1, 3-[(2-{[1-(pyrimidin-5-yl)cyclopropyl]amino}pyrimidin-5-yl)carbonyl]benzonitrile]	4.1 nM	7 nM		mark improvement	mark improvement	mark improvement	
O=C(c1ccccc1)c1cnc(NC2(c3cccnc3)CC2)nc1 [Example 114, phenyl(2-{[1-(pyridin-3-yl)cyclopropyl]amino}pyrimidin-5-yl)methanone]	380 nM	254 nM	170 nM				
O=C(c1ccccc1)c1cnc(NCc2cccnn2)nc1 [Example 115, phenyl{2-[(pyridazin-3-ylmethyl)amino]pyrimidin-5-yl}methanone]	1400 nM	1510 nM	806 nM				
O=C(c1ccccc1)c1cnc(NCc2cnccn2)nc1 [Example 116, phenyl{2-[(pyrazin-2-ylmethyl)amino]pyrimidin-5-yl}methanone]	419 nM	561 nM	321 nM				
N#Cc1cccc(C(=O)c2cnc(NCc3cnccn3)nc2)c1 [Example 117, 3-({2-[(pyrazin-2-ylmethyl)amino]pyrimidin-5-yl}carbonyl) benzonitrile]	50.5 nM	31.8 nM	18.1 nM				
N#Cc1cccc(C(=O)c2cnc(NCc3cccnc3)nc2)c1 [Example 118, 3-({2-[(pyridin-3-ylmethyl)amino]pyrimidin-5-yl}carbonyl) benzonitrile]	4 nM	11.2 nM	4.6 nM				
O=C(O)c1cc(/N=N/c2ccc(S(=O)(=O)Nc3ccccn3)cc2)ccc1O [Sulfasalazine, reference compound]							improvement in the colitis

Second part, led by results:

IC50 (human vanin-1 [1])	IC50 (human vanin-1 [2])	IC50 (human vanin-1 [3])	Structure (SMILES)	Disease Activity Index (DAI) (DSS-induced colitis; [4])	colon length (DSS-induced colitis; [4])	loss of body weight (DSS-induced colitis; [4])	improvement in the colitis (FIG. 1-3) (DSS-induced colitis; 100 mg/kg po QD days 5-14, positive control)
36 nM	37.8 nM	16.6 nM	N#Cc1cccc(C(=O)c2cnc(NCc3cncnc3)nc2)c1 [Example 120, 3-({2-[(pyrimidin-5-ylmethyl)amino]pyrimidin-5-yl}carbonyl) benzonitrile]				
32.3 nM	50.4 nM	9.1 nM	CC(C)(Nc1ncc(C(=O)c2cccc(C(F)(F)F)c2)cn1)c1ccccc1 [Example 121, {2-[(2-phenylpropan-2-yl)amino]pyrimidin-5-yl}[3-(trifluoromethyl)phenyl]methanone]				
526 nM	798 nM	223 nM	CC(C)(Nc1ncc(C(=O)c2ccc3c(c2)OCCO3)cn1)c1ccccc1 [Example 124, 2,3-dihydro-1,4-benzodioxin-6-yl{2-[(2-phenylpropan-2-yl)amino]pyrimidin-5-yl}methanone]				
28.2 nM	44 nM	40.6 nM	CS(=O)(=O)c1cccc(C(=O)c2cnc(NCc3ccc(C#N)cc3)nc2)c1 [Example 126, 4-[({5-[3-(methylsulfonyl)benzoyl]pyrimidin-2-yl}amino)methyl] benzonitrile]				
38.1 nM	38.9 nM	43.5 nM	O=C(c1cnc(NCc2cccnc2)nc1)c1cc(F)cc(C(F)(F)F)c1 [Example 128, [3-fluoro-5-(trifluoromethyl)phenyl]{2-[(pyridin-3-ylmethyl)amino]pyrimidin-5-yl}methanone]				
